These results are taken from publication PMC11206987, “Investigation of the Efficacy of Benzylidene-3-methyl-2-thioxothiazolidin-4-one Analogs with Antioxidant Activities on the Inhibition of Mushroom and Mammal Tyrosinases” (Molecules, 2024).

Assay [1] in a line: DPPH radical scavenging activity assay. The settings on record: 500 µM. On the procedure: First, the ability of BMTTZD analogs 1–8 to scavenge DPPH radicals was examined using L-ascorbic acid (vitamin C; positive control). All samples were tested at 500 µM.
The ability of the BMTTZD analogs to scavenge DPPH radicals was evaluated as previously reported. To each well of a 96-well plate containing analogs 1–8 (5 mM in […]; 20 µL) was added a DPPH solution (0.2 mM in methanol; 180 µL). The mixture was kept in a place without light for 30 min at 25°C to generate DPPH radicals. The well absorbance at 517 nm was measured utilizing a VersaMax® reader. The ability of the analogs to remove DPPH radicals was compared to that of vitamin C.

Another assay has as its target mushroom tyrosinase (Agaricus bisporus, UniProt C7FF04). As to the kind of experiment: Kinetic study of mushroom tyrosinase inhibition (Lineweaver–Burk and Dixon plots). The assay is classed as biochemical. On the procedure:
The initial rate of dopachrome generation was examined at various BMTTZD analog concentrations (0, 1.5, 3, and 6 µM for analog 1; 0, 2, 4, and 8 µM for analogs 2 and 5; and 0, 0.05, 0.1, and 0.2 µM for 3) with 0.5, 1, 2, 4, 8, or 16 mM L-dopa as substrates using mushroom tyrosinase. Plotting the reciprocal of the dopachrome formation rate against the inverse of the L-dopa concentration produced Lineweaver–Burk plots (Figure 2). Each Lineweaver–Burk plot created four straight lines with different slopes. For analogs 1 and 3, the four straight lines met at a point on the y-axis, whereas for analogs 2 and 5, the four straight lines converged at a point in the second quadrant.
The Dixon plots produced lines that met in the second quadrant. The x-coordinate of the convergence position represents the inhibition constant (Ki) of the ligand.
Lineweaver–Burk (L-B) plots were acquired for the kinetic analysis of analogs against mushroom tyrosinase as previously described. In brief, 10 µL of a solution of DMSO and BMTTZD analogs 1–3 or 5 (final concentrations: 0, 1.5, 3, and 6 µM for analog 1; 0, 2, 4, and 8 µM for analogs 2 and 5; and 0, 0.05, 0.1, and 0.2 µM for analog 3) in each well of a 96-well plate was mixed with 20 µL of aqueous mushroom tyrosinase solution (200 units/mL) and 170 µL of an aqueous substrate mixture (various concentrations of L-dopa (final concentrations: 16, 8, 4, 2, 1 and 0.5 mM) and 17.2 mM sodium phosphate buffer (pH 6.5)). During incubation (15 min at 37 °C), the increase in the well absorbance (ΔOD475/min) was calculated at 1 min intervals utilizing a VersaMax® reader.

A short description of assay [2]: ABTS+ radical scavenging activity assay. The settings on record: 100 µM. On the procedure: Second, the ability of BMTTZD analogs to scavenge ABTS^+ radicals was examined. ABTS^+ radicals were obtained via the oxidation of ABTS using potassium persulfate. All samples (Trolox (positive control) and 1–8) were tested at 100 µM.
The ability of the BMTTZD analogs to scavenge ABTS^+ radicals was assessed as previously described, with minor modifications. To a 50 mL tube were added 20 mL aqueous K2S2O8 solution (2.45 mM) and 20 mL aqueous ABTS solution (7 mM). The combined mixture was placed at 22 °C in a place without light for 17 h to generate the ABTS^+ radicals. For adequate absorbance control (0.70 ± 0.02 at 734 nm), methanol was added to the combined mixture. Test compounds (Trolox and analogs 1–8; 10 µL in 10% DMSO/90% EtOH [v/v] solution) were mixed with 90 µL ABTS^+ radical solution. After storage in a place without light for 2 min, the well absorbance at 734 nm was acquired for 10 min every 1 min by using a microplate reader (VersaMax®). All test compounds were tested at 100 µM. The activity of the analogs was compared to that of Trolox.

The target in assay [3] is T1, B16F10 cellular tyrosinase (Mus musculus, UniProt P11344).
T1 construct: host or cells: B16F10 cells
T1 sequence (P11344 19-533): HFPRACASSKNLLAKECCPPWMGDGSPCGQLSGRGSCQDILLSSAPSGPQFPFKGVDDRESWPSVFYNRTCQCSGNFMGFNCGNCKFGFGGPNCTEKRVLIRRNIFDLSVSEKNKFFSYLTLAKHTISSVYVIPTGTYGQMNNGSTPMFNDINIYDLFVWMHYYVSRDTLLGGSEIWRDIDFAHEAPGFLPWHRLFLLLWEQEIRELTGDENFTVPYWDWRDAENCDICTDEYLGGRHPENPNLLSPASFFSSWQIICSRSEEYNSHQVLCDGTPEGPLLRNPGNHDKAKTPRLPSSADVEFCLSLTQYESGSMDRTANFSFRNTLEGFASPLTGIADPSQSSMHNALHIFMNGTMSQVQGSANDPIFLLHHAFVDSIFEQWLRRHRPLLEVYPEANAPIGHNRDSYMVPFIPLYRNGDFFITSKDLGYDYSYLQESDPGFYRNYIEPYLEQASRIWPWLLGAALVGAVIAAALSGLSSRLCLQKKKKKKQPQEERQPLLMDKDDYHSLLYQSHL
As to the kind of experiment: Cellular tyrosinase activity assay in B16F10 cells stimulated with IBMX plus α-MSH. The assay is classed as cell-based, murine. The settings on record: 72 h. On the procedure: Analogs 1, 3, and 5 were exposed to B16F10 cells at various concentrations (20, 10, 5, and 0 µM) before exposure to IBMX (200 µM; 3-isobutyl-1-methylxanthine) and α-MSH (1 µM; α-melanocyte-stimulating hormone). After incubation (72 h), B16F10 cellular tyrosinase activity was determined. […] It was examined whether the cellular tyrosinase inhibition of the BMTTZD analogs could influence B16F10 cellular melanin contents.
Effects on B16F10 tyrosinase inhibition were evaluated as previously described. A 6-well plate containing 1 × 10^5 B16F10 cells/well was cultivated for 23 h under conditions identical to those of the cell culture. […] The cells were cultivated for 72 h. After washing 2 times with PBS, the cells were lysed in a 100 µL lysis buffer, including phenylmethylsulfonyl fluoride (5 µL; 1 mM), Triton X-100 (5 µL; 1%), and phosphate buffer (90 µL; 50 mM (pH 6.5)). After 30 min incubation at −80 °C, the cell lysates were centrifuged at 4 °C for 30 min. The supernatants (80 µL) of the lysates were moved to each well of a microplate and mixed with 20 µL 10 mM L-dopa.

mushroom tyrosinase, sequence (C7FF04 1-392): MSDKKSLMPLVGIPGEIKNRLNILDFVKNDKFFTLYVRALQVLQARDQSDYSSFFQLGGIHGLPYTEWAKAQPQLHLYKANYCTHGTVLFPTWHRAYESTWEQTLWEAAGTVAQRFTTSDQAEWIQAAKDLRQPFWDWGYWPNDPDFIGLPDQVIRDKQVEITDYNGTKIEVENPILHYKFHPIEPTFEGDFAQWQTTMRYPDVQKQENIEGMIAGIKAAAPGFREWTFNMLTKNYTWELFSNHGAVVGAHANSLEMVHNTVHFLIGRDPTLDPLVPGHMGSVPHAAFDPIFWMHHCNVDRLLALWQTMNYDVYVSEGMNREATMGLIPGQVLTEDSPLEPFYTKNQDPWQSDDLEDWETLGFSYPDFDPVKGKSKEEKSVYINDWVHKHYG

The term Ki denotes a dissociation constant, usually derived from enzyme kinetics or from competition with a known ligand. In the case of `CN1C(=O)/C(=C/c2ccc(O)cc2O)SC1=S` [Analog 3, (Z)-5-(2,4-Dihydroxybenzylidene)-3-methyl-2-thioxothiazolidin-4-one], the “DPPH radical scavenging activity” value in assay [1] is 82%. The “type of tyrosinase inhibition (Lineweaver–Burk plots)” value on mushroom tyrosinase (substrate L-dopa 0.5–16 mM) is given as “competitive inhibitors”. Moreover, on mushroom tyrosinase (substrate L-dopa, read-out: inhibition constant (Ki) from Dixon plots), the Ki turned out to be 47 nM. Besides, the “ABTS^+ radical scavenging activity” value in assay [2] is 95%. The “effect on stimulator-induced cellular tyrosinase activity” value in assay [3] (5, 10, 20 µM, IBMX plus α-MSH) is “concentration-dependently and significantly reduced”. The figures for the “cellular tyrosinase inhibition compared with kojic acid (20 µM)” value in assay [3] (analog at 10 µM) and in assay [3] (analog at highest concentration tested (20 µM)) were “slightly more strongly than kojic acid” and “stronger inhibitory effects than kojic acid”, respectively.
